Experimental data taken from patent publication US8883746B2, “α-galactosylceramide derivatives, pharmaceutically acceptable salts thereof, preparation method and pharmaceutical composition for the immune adjuvant containing the same as an active ingredient” (SNU R&DB Foundation, priority 2006, dated 2014).

What was measured:
[1] = test system: DN32.D3 NKT hybridoma cells; experiment: Stimulatory activity for NKT hybridoma cells (IL-2 secretion, ELISA); format: cell-based, mouse; settings: for IL-2 production compared to α-GalCer: mouse CD1d-bearing RBL cells loaded 4 hrs, co-incubated with DN32.D3 for 16 hrs, FIG. 1; for Stimulatory effect (IL-2) compared to α-GalCer: low concentration (32 ng/mL)
Method: Determination of Stimulatory Activity for NKT Hybridoma Cell (Zhou et al., Science, 306:1786-1789, 2004)
Mouse CD1d-bearing rat basophilic leukemia (RBL) cells were incubated with various concentrations of α-GalCer or the α-GalCer derivatives prepared in Examples for 4 hrs. After removing free glycolipids by washing with PBS (phosphate-buffer saline) three times, RBL cells were incubated with DN32.D3 NKT hybridoma cells for 16 hrs. IL-2 secretion levels in the supernatant were determined through ELISA (Enzyme-Linked Immunosorbent Assay).

[2] = test system: Splenocytes from naïve C57BL/6 mice; experiment: Cytokine levels (IFN-γ, IL-4) produced by mouse splenocytes, ELISA; format: cell-based; settings: 72 hrs; for IL-4 secretion compared to α-GalCer: high concentrations (125 ng/ml), FIG. 3(a); for IL-4 production compared with α-GalCer: FIG. 3(b) (2 ng/ml)
Method: Evaluation of Cytokine Levels Produced by Mouse Splenocyte
Splenocytes from naïve C57BL/6 mice were incubated with various concentrations of α-GalCer or α-GalCer derivatives for 72 hrs. IFN-γ and IL-4 secretion levels in the supernatant were determined through ELISA.

NKT cells = settings: literature (Goff et al., 2004); cited from earlier work
naïve C57BL/6 mice = experiment: IFN-γ and IL-4 production level in vivo (serum, ELISA); settings: 1 μg/mouse intravenously
Method: Examination of IFN-γ and IL-4 Production Level In Vivo
α-GalCer or the α-GalCer derivatives (1 μg/mouse) were intravenously injected into naïve C57BL/6 mice. The serum concentrations of IFN-γ and IL-4 at each time point were determined through ELISA.

## CCCCCCCCCCCCCC[C@@H](O)[C@@H](O)[C@H](CO[C@H]1OC(CO)[C@H](O)[C@H](O)[C@H]1O)n1cc(CCCCCC)nn1 (stereo partly drawn) [Example 1, (2S,3R,4S,5R)-2-((2S,3S,4R)-2-(4-hexyl-1H-1,2,3-triazol-1-yl)-3,4-dihydroxyoctadecyloxy)-6-(hydroxymethyl)-tetrahydro-2H-pyrane-3,4,5-triol]
[1]
  IL-2 production compared to α-GalCer: ineffective

## CCCCCCCCCCCCCC[C@@H](O)[C@@H](O)[C@H](CO[C@H]1OC(CO)[C@H](O)[C@H](O)[C@H]1O)n1cc(CCCCCCC)nn1 (stereo partly drawn) [Example 2, (2S,3R,4S,5R)-2-((2S,3S,4R)-2-(4-heptyl-1H-1,2,3-triazol-1-yl)-3,4-dihydroxyoctadecyloxy)-6-(hydroxymethyl)-tetrahydro-2H-pyrane-3,4,5-triol]
[1]
  IL-2 production compared to α-GalCer: ineffective
[2]
  IL-4 secretion compared to α-GalCer: equivalent or greater IL-4 secretion than did α-GalCer

## CCCCCCCCCCCCCCCCc1cn([C@@H](CO[C@H]2OC(CO)[C@H](O)[C@H](O)[C@H]2O)[C@H](O)[C@H](O)CCCCCCCCCCCCCC)nn1 (stereo partly drawn) [Example 3, (2S,3R,4S,5R)-2-((2S,3S,4R)-2-(4-hexadecyl-1H-1,2,3-triazol-1-yl)-3,4-dihydroxyoctadecyloxy)-6-(hydroxymethyl)-tetrahydro-2H-pyrane-3,4,5-triol]
[1]
  IL-2 production compared to α-GalCer: not active in practice
other
  melting point: 162 to 164 °C

## CCCCCCCCCCCCCCCCCCCCCCCc1cn([C@@H](CO[C@H]2OC(CO)[C@H](O)[C@H](O)[C@H]2O)[C@H](O)[C@H](O)CCCCCCCCCCCCCC)nn1 (stereo partly drawn) [Example 4, (2S,3R,4S,5R)-2-((2S,3S,4R)-3,4-dihydroxy-2-(4-tricosyl-1H-1,2,3-triazol-1-yl)octadecyloxy)-6-(hydroxymethyl)-tetranydro-2H-pyrane-3,4,5-triol]
[2]
  IL-4 secretion compared to α-GalCer: equivalent or greater IL-4 secretion than did α-GalCer

## CCCCCCCCCCCCCCCCCCCCCCCCc1cn([C@@H](CO[C@H]2OC(CO)[C@H](O)[C@H](O)[C@H]2O)[C@H](O)[C@H](O)CCCCCCCCCCCCCC)nn1 (stereo partly drawn) [Example 5, (2S,3R,4S,5R)-2-((2S,3S,4R)-3,4-dihydroxy-2-(4-tetracosyl-1H-1,2,3-triazol-1-yl)octadecyloxy)-6-(hydroxymethyl)-tetrahydro-2H-pyrane-3,4,5-triol]
[1]
  Stimulatory effect (IL-2) compared to α-GalCer: comparable stimulatory effects to α-GalCer
[2]
  IL-4 secretion compared to α-GalCer: equivalent or greater IL-4 secretion than did α-GalCer
other
  melting point: 167 to 169 °C

## CCCCCCCCCCCCCCCCCCCCCCCCCc1cn([C@@H](CO[C@H]2OC(CO)[C@H](O)[C@H](O)[C@H]2O)[C@H](O)[C@H](O)CCCCCCCCCCCCCC)nn1 (stereo partly drawn) [Example 6, (2S,3R,4S,5R)-2-((2S,3S,4R)-3,4-dihydroxy-2-(4-pentacosyl-1H-1,2,3-triazol-1-yl)octadecyloxy)-6-(hydroxymethyl)-tetrahydro-2H-pyrane-3,4,5-triol]
other
  melting point: 165 to 167 °C

## CCCCCCCCCCCCCC[C@@H](O)[C@@H](O)[C@H](CO[C@H]1OC(CO)[C@H](O)[C@H](O)[C@H]1O)n1cc(CCCCCCc2ccccc2)nn1 (stereo partly drawn) [Example 7, (2S,3R,4S,5R)-2-((2S,3S,4R)-3,4-dihydroxy-2-(4-(6-phenylhexyl)-1H-1,2,3-triazol-1-yl)octadecyloxy)-6-(hydroxymethyl)-tetrahydro-2H-pyrane-3,4,5-triol]
[1]
  IL-2 production compared to α-GalCer: ineffective

## CCCCCCCCCCCCCC[C@@H](O)[C@@H](O)[C@H](CO[C@H]1OC(CO)[C@H](O)[C@H](O)[C@H]1O)n1cc(CCCCCCCc2ccccc2)nn1 (stereo partly drawn) [Example 8, (2S,3R,4S,5R)-2-((2S,3S,4R)-3,4-dihydroxy-2-(4-(7-phenylheptyl)-1H-1,2,3-triazol-1-yl)octadecyloxy)-6-(hydroxymethyl)-tetrahydro-2H-pyrane-3,4,5-triol]
[1]
  IL-2 production compared to α-GalCer: ineffective

## CCCCCCCCCCCCCC[C@@H](O)[C@@H](O)[C@H](CO[C@H]1OC(CO)[C@H](O)[C@H](O)[C@H]1O)n1cc(CCCCCCCCc2ccccc2)nn1 (stereo partly drawn) [Example 9, (2S,3R,4S,5R)-2-((2S,3S,4R)-3,4-dihydroxy-2-(4-(8-phenyloctyl)-1H-1,2,3-triazol-1-yl)octadecyloxy)-6-(hydroxymethyl)-tetrahydro-2H-pyrane-3,4,5-triol]
[1]
  IL-2 production compared to α-GalCer: ineffective

## CCCCCCCCCCCCCC[C@@H](O)[C@@H](O)[C@H](CO[C@H]1OC(CO)[C@H](O)[C@H](O)[C@H]1O)NC(=O)CCCCCCCCCCCN (stereo partly drawn) [Example 11, 12-amino-N-((2S,3S,4R)-3,4-dihydroxy-1-((2S,3R,4S,5R)-3,4,5-trihydroxy-6-(hydroxymethyl)-tetrahydro-2H-pyran-2-yloxy)octadecan-2-yl)dodecanamide]
[1]
  Stimulatory effect (IL-2) compared to α-GalCer: comparable stimulatory effects to α-GalCer
[2]
  IL-4 production compared with α-GalCer: more IL-4 production compared with α-GalCer

## CCCCCCCCCCCCCC[C@@H](O)[C@@H](O)[C@H](CO[C@H]1OC(CO)[C@H](O)[C@H](O)[C@H]1O)NC(=O)CCCCCCCCCCO (stereo partly drawn) [Example 12, N-((2S,3S,4R)-3,4-dihydroxy-1-((2S,3R,4S,5R)-3,4,5-trihydroxy-6-(hydroxymethyl)-tetrahydro-2H-pyran-2-yloxy)octadecan-2-yl)-11-hydroxyundecanamide]
[1]
  Stimulatory effect (IL-2) compared to α-GalCer: comparable stimulatory effects to α-GalCer

## CCCCCCCCCCCCCC[C@@H](O)[C@@H](O)[C@H](CO[C@H]1OC(CO)[C@H](O)[C@H](O)[C@H]1O)NC(=O)CCCCCCCCCCCO (stereo partly drawn) [Example 13, N-((2S,3S,4R)-3,4-dihydroxy-1-((2S,3R,4S,5R)-3,4,5-trihydroxy-6-(hydroxymethyl)-tetrahydro-2H-pyran-2-yloxy)octadecan-2-yl)-12-hydroxydodecanamide]
[2]
  IL-4 production compared with α-GalCer: more IL-4 production compared with α-GalCer

## CCCCCCCCCCCCCC[C@@H](O)[C@@H](O)[C@H](CO[C@H]1OC(CO)[C@H](O)[C@H](O)[C@H]1O)NC(=O)CCCCCCCCCCN(CCCCCCC)CCCCCCC (stereo partly drawn) [Example 16, 11-(diheptylamino)-N-((2S,3S,4R)-3,4-dihydroxy-1-((2S,3R,4S,5R)-3,4,5-trihydroxy-6-(hydroxymethyl)-tetrahydro-2H-pyran-2-yloxy)octadecan-2-yl)undecanamide]
[1]
  Stimulatory effect (IL-2) compared to α-GalCer: comparable stimulatory effects to α-GalCer
[2]
  IL-4 production compared with α-GalCer: more IL-4 production compared with α-GalCer

## CCCCCCCCCCCCCC[C@@H](O)[C@@H](O)[C@H](CO[C@H]1O[C@H](CO)[C@H](O)[C@H](O)[C@H]1O)NC(=O)CCCCCCC [PBS-25]
NKT cells
  Secretion of Th2-cytokines compared to α-GalCer: greater amount of Th2-cytokines, compared to α-GalCer

## CCCCCCCCCCCCCCCCCCCCCCCCCC(=O)N[C@@H](CO[C@H]1O[C@H](CO)[C@H](O)[C@H](O)[C@H]1O)[C@H](O)[C@H](O)CCCCCCCCCCCCCC [α-GalCer, α-Galactosylceramide]
naïve C57BL/6 mice
  Time of peak of serum IFN-γ levels after administration: 12 h
  Time of rapid increase of serum IL-4 levels after administration: ≤ 2 h
